Results on 3 molecules are retold here after patent EP4663635A1, “CRYSTALLINE FORM OF SULFONAMIDE DERIVATIVE AND PREPARATION METHOD THEREFOR” (Jiangsu Hengrui Pharmaceuticals Co., Ltd., priority 2023, dated 2024).

For one data set, the target named is T1, KAT6A (Homo sapiens, UniProt Q92794).
T1 construct: purchased Chempartner (customized)
Put plainly: Enzymatic activity assay KAT6 (AlphaScreen method). The class given is biochemical. The note with it: KAT enzyme 1.25 nM, Ac-CoA 1000 nM, H3 55 nM. The source says: • 1. KAT6A (customized by Chempartner) • 2. Ovalbumin (Sigma-Aldrich, A5378-5G) • 3. 2 M Tris-HCl solution, pH 7.8, sterile (Sangon, B548140-0500) • 4. 5 M NaCl solution (Sangon, B548121-0100) • 5. EDTA (0.5 M), pH 8.0, RNase-free (Thermofisher, AM9260G) • 6. Tween-20 (Sangon, A100777-0500) • 7. DTT, 1 M (Invitrogen, P2325) • 8. Acetyl coenzyme A (Ac-CoA, CAYMAN, Cat. No. 16160) • 9. Recombinant histone H3.1 biotinylated (human) (Active Motif 31696) • 10. 384-well plate, light gray (PerkinElmer, Cat. No. 6005350) • 11. Anacardic acid (MCE, Cat. No. HY-N2020) • 12. AlphaScreen streptavidin donor beads, 5 mg (PerkinElmer, 6760002) • 13. AlphaScreen protein A acceptor beads, 5 mg (PerkinElmer, 6760137M) • 14. Acetylated-lysine antibody #9441 (CST 9441S) • 15. PHERA star microplate reader (BMG labtech)
• a. 1× assay buffer: 100 mM Tris-HCl, pH 7.8; 15 mM NaCl; 1 mM EDTA; 0.01% tween-20; 1 mM DTT; 0.01% m/v ovalbumin. • b. KAT enzyme solution: 1.25 nM (final concentration), prepared in 1× assay buffer. • c. […]
The prepared enzyme solution was added to a 384-well plate at 3 µL/well, and 3 µL of 1× assay buffer was added to each well in columns 23 and 24 (Min). […] Plate reading was performed on the microplate reader, and AlphaScreen counts were recorded. Plotting was performed using the Graphpad software, and the IC50 values of the compounds were calculated. […]

The test system of another data set is ZR-75-1. Put plainly: Anti-ZR-75-1 proliferation assay (CellTiter-Glo). The class given is cell-based. The note with it: CTG assay on day 14. The source says: • 1. ZR-75-1 (ATCC CRL1500) • 2. 1640 medium (Gibco, 22400-089) • 3. 0.25% trypsin-EDTA (1×) (Gibco, 25200-072) • 4. Penicillin-streptomycin (Gibco, 15140-122) • 5. DPBS (1×) (Gibco, 14190-144) • 6. FBS (Gibco, 10091148) • 7. Assay plate, 96-well, black with clear bottom (Corning, 3603) • 8. 96-well non-treated round-bottom plate (JET BIOFIL, TCP-002-096) • 9. CellTiter-Glo buffer (Promega, G756B) • 10. CellTiter-Glo substrate (Promega, G755B) • 11. Automatic cell counter (Countstar, IC1000) • 12. Thermostatic incubator (Thermo, I160) • 13. PHERAstar FS (BMG labtech, PHERAstar FS)
• a. The state of cells was observed under a microscope to make sure that the cell confluence was about 90%. • b. The cell supernatant was discarded. The cells were rinsed with DPBS once, and the DPBS was removed. The cells were digested with a proper amount of trypsin and left to stand at 37 °C for 5 min. • c. The digestion was stopped with an equal volume of 1640 medium containing 10% FBS, and the cell suspension was collected and centrifuged at 300 g for 3 min. The cells were suspended in a proper amount of fresh medium. • d. The resulting cell suspension was collected and cell counting was performed. • e. The cell suspension was diluted to 5 × 10^4 cells/mL, 50 µL/well with 1640 medium containing 10% FBS. Each well contained 2500 ZR-75-1 cells. • f. […]

The nature of data set [1]: Hygroscopicity study of crystal forms (DVS). The class given is physicochemical. The note with it: for 0.0%RH-80.0%RH: DVS mass change, 25 °C; for Crystal form: crystal form after DVS test. The method, then: DVS refers to dynamic vapor sorption: The analysis was performed using SMS DVS Advantage; at 25 °C, the humidity was changed as follows: 50%-95%-0%-95%-50%, in steps of 10% (5% for the last step) (specific humidity ranges are shown in corresponding patterns, and those listed here were used in most cases); the criterion was dm/dt being not greater than 0.002%.
Surface Measurement Systems intrinsic DVS was adopted. At 25 °C, the crystal forms were tested in a humidity range of 0%-95%, with increments of 10%. The criterion was that each gradient mass change dM/dT is less than 0.002%, TMAX 360 min, two cycles.

A short description of data set [2]: Stability influencing factor study of crystal forms. The class given is physicochemical. The method, then: Free-state samples were spread out, left to stand in open flasks, and subjected to 30-day stability tests in light exposure (4500 Lux), high temperature (40 °C and 60 °C), and high humidity (RH 75% and RH 92.5%) conditions.
Data set [3] is described as follows: Long-term/accelerated stability of crystal forms. The class given is physicochemical. The method, then: Free-state samples were sealed in aluminum foil bags and left to stand in 25 °C/60% RH and 40 °C/75% RH conditions to test their stability.

T1 sequence (Q92794 whole entry, species assumed): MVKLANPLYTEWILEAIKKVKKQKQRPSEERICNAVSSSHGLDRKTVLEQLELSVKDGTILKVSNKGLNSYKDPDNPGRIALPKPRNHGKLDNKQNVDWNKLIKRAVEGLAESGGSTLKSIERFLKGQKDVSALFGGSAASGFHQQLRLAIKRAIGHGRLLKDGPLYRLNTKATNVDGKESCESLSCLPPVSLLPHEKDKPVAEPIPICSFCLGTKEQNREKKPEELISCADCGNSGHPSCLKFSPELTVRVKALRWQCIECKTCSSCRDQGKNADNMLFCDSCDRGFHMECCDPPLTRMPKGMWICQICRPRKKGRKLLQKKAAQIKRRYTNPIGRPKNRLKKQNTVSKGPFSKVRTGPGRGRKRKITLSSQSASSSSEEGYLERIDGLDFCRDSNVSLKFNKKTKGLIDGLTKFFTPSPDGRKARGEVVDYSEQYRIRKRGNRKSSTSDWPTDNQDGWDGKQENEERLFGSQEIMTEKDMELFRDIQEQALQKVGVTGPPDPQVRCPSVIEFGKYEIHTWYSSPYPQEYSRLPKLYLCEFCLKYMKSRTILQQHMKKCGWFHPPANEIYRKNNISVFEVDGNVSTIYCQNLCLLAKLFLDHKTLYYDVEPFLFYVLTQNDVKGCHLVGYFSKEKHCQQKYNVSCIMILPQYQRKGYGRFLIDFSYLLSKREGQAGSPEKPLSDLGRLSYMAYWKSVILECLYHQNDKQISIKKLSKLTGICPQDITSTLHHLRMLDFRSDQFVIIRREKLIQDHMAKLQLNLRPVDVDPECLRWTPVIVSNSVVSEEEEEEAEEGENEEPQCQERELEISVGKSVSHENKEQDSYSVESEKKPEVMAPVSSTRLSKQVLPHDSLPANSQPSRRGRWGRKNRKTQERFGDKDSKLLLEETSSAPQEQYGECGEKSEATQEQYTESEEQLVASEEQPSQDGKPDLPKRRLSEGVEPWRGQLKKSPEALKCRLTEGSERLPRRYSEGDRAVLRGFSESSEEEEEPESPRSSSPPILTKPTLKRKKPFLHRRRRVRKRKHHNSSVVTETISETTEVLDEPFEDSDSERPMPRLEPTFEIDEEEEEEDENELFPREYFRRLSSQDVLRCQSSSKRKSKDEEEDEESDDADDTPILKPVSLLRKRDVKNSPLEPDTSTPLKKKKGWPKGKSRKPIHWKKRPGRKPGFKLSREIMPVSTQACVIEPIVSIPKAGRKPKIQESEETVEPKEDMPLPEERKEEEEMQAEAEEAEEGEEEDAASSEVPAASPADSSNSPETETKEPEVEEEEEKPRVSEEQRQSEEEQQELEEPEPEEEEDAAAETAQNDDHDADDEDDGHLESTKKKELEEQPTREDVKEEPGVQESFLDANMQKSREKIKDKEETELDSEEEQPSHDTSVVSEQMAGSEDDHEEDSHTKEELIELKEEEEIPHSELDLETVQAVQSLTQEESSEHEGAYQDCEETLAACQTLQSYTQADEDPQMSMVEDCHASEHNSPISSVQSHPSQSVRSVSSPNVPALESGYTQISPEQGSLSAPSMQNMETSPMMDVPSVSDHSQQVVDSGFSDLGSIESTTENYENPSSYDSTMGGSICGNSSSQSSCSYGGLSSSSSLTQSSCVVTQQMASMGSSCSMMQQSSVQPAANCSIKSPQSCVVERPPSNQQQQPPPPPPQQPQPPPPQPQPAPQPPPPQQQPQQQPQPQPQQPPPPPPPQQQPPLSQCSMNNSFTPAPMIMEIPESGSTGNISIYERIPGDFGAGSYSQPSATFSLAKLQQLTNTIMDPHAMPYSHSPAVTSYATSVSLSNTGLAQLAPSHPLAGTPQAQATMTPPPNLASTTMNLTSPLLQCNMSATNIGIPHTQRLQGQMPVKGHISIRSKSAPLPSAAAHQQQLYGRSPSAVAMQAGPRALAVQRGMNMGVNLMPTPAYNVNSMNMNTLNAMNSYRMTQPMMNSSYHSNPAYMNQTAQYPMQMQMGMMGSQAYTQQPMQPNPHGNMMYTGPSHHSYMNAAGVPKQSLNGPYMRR

As for `COc1cccc(OC)c1S(=O)(=O)Nc1noc2cc(Cn3cccn3)c3c(c12)OCCC3` [Compound of formula 1, N-(5-((1H-pyrazol-1-yl)methyl)-3,4-dihydro-2H-chromeno[8,7-d]isoxazol-9-yl)-2,6-dimethoxybenzenesulfonamide], the IC50 on KAT6A was 0.3 nM; in the data set with ZR-75-1 (Homo sapiens, ZR-75-1, 336 h) it was 0.4 nM. Moreover, the “Maximum inhibition rate/Imax%” value with ZR-75-1 came out at 96%.

`COc1cccc(OC)c1S(=O)(=O)Nc1noc2cc(Cn3cccn3)c3c(c12)OCCC3` [Crystal form A, N-(5-((1H-pyrazol-1-yl)methyl)-3,4-dihydro-2H-chromeno[8,7-d]isoxazol-9-yl)-2,6-dimethoxybenzenesulfonamide]: in data set [1], the 0.0%RH-80.0%RH worked out at 0.10%. In addition, the Crystal form entry in data set [1], in data set [3] (25 °C/60%RH) and in data set [3] (40 °C/75%RH) was “No change” each time. Besides, the Purity% is 99.1% in data set [2] (40 °C, 5 days); 99.1% in data set [2] (40 °C, 10 days); 99.1% in data set [2] (40 °C, 30 days); 99.1% in data set [2] (60 °C, 7 days); 99.1% in data set [2] (60 °C, 14 days); 99.1% in data set [2] (60 °C, 30 days). Besides, the Purity% in data set [2] (75% RH, 7 days) stood at 99.1%; in data set [2] (75% RH, 14 days) it was 99.1%; in data set [2] (75% RH, 30 days), 99.1%; in data set [2] (92.5% RH, 7 days), 99.1%; in data set [2] (92.5% RH, 14 days), 99.1%; in data set [2] (92.5% RH, 30 days), 99.1%. Moreover, the Purity% in data set [2] (Initial, 0 days) was found to be 99.1%; in data set [2] (Light exposure (4500 Lux), 7 days), 99.0%; in data set [2] (Light exposure (4500 Lux), 14 days), 98.9%; in data set [2] (Light exposure (4500 Lux), 30 days), 98.9%; in data set [3] (25 °C/60%RH, 1 month) it was 99.1%; in data set [3] (25 °C/60%RH, 2 months) it was 99.1%. Further, the Purity% in data set [3] (25 °C/60%RH, 3 months) was found to be 99.1%; in data set [3] (25 °C/60%RH, 9 months), 99.1%; in data set [3] (25 °C/60%RH, 14 days), 99.1%; in data set [3] (25 °C/60%RH, Initial), 99.1%; in data set [3] (40 °C/75%RH, 1 month) it was 99.1%; in data set [3] (40 °C/75%RH, 2 months), 99.1%. For the same molecule, the Purity% in data set [3] (40 °C/75%RH, 3 months) came to 99.1%; in data set [3] (40 °C/75%RH, 9 months), 99.1%; in data set [3] (40 °C/75%RH, 14 days) it was 99.1%; in data set [3] (40 °C/75%RH, Initial), 99.1%.

Consider `COc1cccc(OC)c1S(=O)(=O)Nc1noc2cc(Cn3cccn3)c3c(c12)OCCC3` [Crystal form H, N-(5-((1H-pyrazol-1-yl)methyl)-3,4-dihydro-2H-chromeno[8,7-d]isoxazol-9-yl)-2,6-dimethoxybenzenesulfonamide], for which, in data set [1], the 0.0%RH-80.0%RH turned out to be 19.91% and the Crystal form entry was “No change”.
